In patent US20260207490A1, “Hydroxydiphenylethane compound ointment, use thereof, and method for preparing same” (Cutia Therapeutics (Wuxi) Co., Ltd., priority 2022, published 2026):

Key:
[1] = Saturated solubility in different excipients; type: physicochemical
[2] = Saturated solubility in medium-chain triglycerides / isopropyl myristate / light liquid paraffin mixtures; type: physicochemical; conditions: for Saturation solubility of 2-isopropyl-5-(2′-phenylethyl)-1,3-benzenediol: room temperature
Description: Experimental variables A, B, and C were set as the content of medium-chain triglycerides (%), isopropyl myristate (%), and light liquid paraffin (%), respectively (for the convenience of experimental design and operation, light liquid paraffin was used to represent all hydrocarbon compounds). According to the maximum safe dosage of excipients (FDA IID database), the variable range was set as follows: 0<A≤20, 0<B≤20. According to the preliminary experimental results (medium-chain triglycerides are more important for the dissolution of API and the stability of the system) and the requirements for the viscosity and skin feel of the ointment, the constraints were set as follows: A>B; A+B≤25%; A+B+C=100%.
According to the variable range and constraint conditions, a total of 20 experimental formulations were designed. After the components were mixed evenly in proportion, an excess of 2-isopropyl-5-(2′-phenylethyl)-1,3-benzenediol was added, stirred overnight at room temperature, centrifuged, the supernatant was filtered and diluted, and the saturated solubility of 2-isopropyl-5-(2′-phenylethyl)-1,3-benzenediol was tested.
The saturated solubility of 2-isopropyl-5-(2′-phenylethyl)-1,3-benzenediol in different proportions of medium-chain triglycerides, isopropyl myristate and light liquid paraffin solution was investigated to verify the accuracy of the prediction equation. The equation can accurately predict the solubility of API in different proportions of excipients. In practical applications, it is acceptable that the API content is within the range of no more than 1.2 times the saturated solubility, that is, 120%×(0.445829×A+0.032300×B−0.000599×C+0.008112×A×B−0.003841×A×C). Preferably, when the content of the active ingredient in the preparation is not higher than 0.445829×A+0.032300×B−0.000599×C+0.008112×A×B−0.003841×A×C, a better solution-type ointment can be prepared. It is further preferred that the content of the active ingredient in the preparation is not higher than 90% of the saturated solubility, that is, the content of the active ingredient in the preparation is not higher than 90%×(0.445829×A+0.032300×B−0.000599×C+0.008112×A×B−0.003841×A×C).

## CC(C)c1c(O)cc(CCc2ccccc2)cc1O [2-isopropyl-5-(2′-phenylethyl)-1,3-benzenediol]
[1]; in 10% glycerol
  saturated solubility: 0.00007%
[1]; in 20% ethanol
  saturated solubility: 0.02%
[1]; in Span 80
  saturated solubility: 3%
[1]; in diethylene glycol monoethyl ether
  saturated solubility: 52%
[1]; in isopropyl myristate
  saturated solubility: 27%
[1]; in isopropyl palmitate
  saturated solubility: 23%
[1]; in light liquid paraffin
  saturated solubility: 0.01%
[1]; in medium-chain triglycerides
  saturated solubility: 27%
[1]; in polyethylene glycol 400
  saturated solubility: 30%
[1]; in polysorbate 80
  saturated solubility: 17%
[1]; in propylene glycol
  saturated solubility: 30%
[1]; in propylene glycol monolaurate
  saturated solubility: 30%
[1]; in water
  saturated solubility: 0.0008%
[2]; experimental formulation 1: MCT 5.97%, isopropyl myristate 5.97%, light liquid paraffin 88.06%
  Saturation solubility of 2-isopropyl-5-(2′-phenylethyl)-1,3-benzenediol: 1.09%
[2]; experimental formulation 2: MCT 6.63%, isopropyl myristate 6.63%, light liquid paraffin 86.74%
  Saturation solubility of 2-isopropyl-5-(2′-phenylethyl)-1,3-benzenediol: 1.22%
[2]; experimental formulation 3: MCT 20.00%, isopropyl myristate 0.00%, light liquid paraffin 80.00%
  Saturation solubility of 2-isopropyl-5-(2′-phenylethyl)-1,3-benzenediol: 2.47%
[2]; experimental formulation 4: MCT 2.00%, isopropyl myristate 0.00%, light liquid paraffin 98.00%
  Saturation solubility of 2-isopropyl-5-(2′-phenylethyl)-1,3-benzenediol: 0.11%
[2]; experimental formulation 5: MCT 12.50%, isopropyl myristate 12.50%, light liquid paraffin 75.00%
  Saturation solubility of 2-isopropyl-5-(2′-phenylethyl)-1,3-benzenediol: 3.78%
[2]; experimental formulation 6: MCT 16.15%, isopropyl myristate 0.00%, light liquid paraffin 83.85%
  Saturation solubility of 2-isopropyl-5-(2′-phenylethyl)-1,3-benzenediol: 2.07%
[2]; experimental formulation 7: MCT 20.00%, isopropyl myristate 0.00%, light liquid paraffin 80.00%
  Saturation solubility of 2-isopropyl-5-(2′-phenylethyl)-1,3-benzenediol: 2.91%
[2]; experimental formulation 8: MCT 18.79%, isopropyl myristate 6.21%, light liquid paraffin 75.00%
  Saturation solubility of 2-isopropyl-5-(2′-phenylethyl)-1,3-benzenediol: 4.13%
[2]; experimental formulation 9: MCT 11.30%, isopropyl myristate 3.90%, light liquid paraffin 84.80%
  Saturation solubility of 2-isopropyl-5-(2′-phenylethyl)-1,3-benzenediol: 1.73%
[2]; experimental formulation 10: MCT 11.62%, isopropyl myristate 2.02%, light liquid paraffin 86.36%
  Saturation solubility of 2-isopropyl-5-(2′-phenylethyl)-1,3-benzenediol: 1.55%
[2]; experimental formulation 11: MCT 10.84%, isopropyl myristate 0.00%, light liquid paraffin 89.16%
  Saturation solubility of 2-isopropyl-5-(2′-phenylethyl)-1,3-benzenediol: 1.05%
[2]; experimental formulation 12: MCT 12.50%, isopropyl myristate 12.50%, light liquid paraffin 75.00%
  Saturation solubility of 2-isopropyl-5-(2′-phenylethyl)-1,3-benzenediol: 3.42%
[2]; experimental formulation 13: MCT 9.35%, isopropyl myristate 8.77%, light liquid paraffin 81.88%
  Saturation solubility of 2-isopropyl-5-(2′-phenylethyl)-1,3-benzenediol: 2.20%
[2]; experimental formulation 14: MCT 17.87%, isopropyl myristate 7.13%, light liquid paraffin 75.00%
  Saturation solubility of 2-isopropyl-5-(2′-phenylethyl)-1,3-benzenediol: 4.11%
[2]; experimental formulation 15: MCT 10.84%, isopropyl myristate 0.00%, light liquid paraffin 89.16%
  Saturation solubility of 2-isopropyl-5-(2′-phenylethyl)-1,3-benzenediol: 1.06%
[2]; experimental formulation 16: MCT 15.17%, isopropyl myristate 4.03%, light liquid paraffin 80.80%
  Saturation solubility of 2-isopropyl-5-(2′-phenylethyl)-1,3-benzenediol: 2.65%
[2]; experimental formulation 17: MCT 13.29%, isopropyl myristate 8.31%, light liquid paraffin 78.40%
  Saturation solubility of 2-isopropyl-5-(2′-phenylethyl)-1,3-benzenediol: 3.98%
[2]; experimental formulation 18: MCT 5.84%, isopropyl myristate 1.16%, light liquid paraffin 93.00%
  Saturation solubility of 2-isopropyl-5-(2′-phenylethyl)-1,3-benzenediol: 0.48%
[2]; experimental formulation 19: MCT 2.00%, isopropyl myristate 0.00%, light liquid paraffin 98.00%
  Saturation solubility of 2-isopropyl-5-(2′-phenylethyl)-1,3-benzenediol: 0.09%
[2]; experimental formulation 20: MCT 18.79%, isopropyl myristate 6.21%, light liquid paraffin 75.00%
  Saturation solubility of 2-isopropyl-5-(2′-phenylethyl)-1,3-benzenediol: 3.95%
[2]; validation group 1: MCT 20%, isopropyl myristate 0.85%, light liquid paraffin 79.15%
  Measured saturated solubility: 3.32%
[2]; validation group 2: MCT 20%, isopropyl myristate 3.4%, light liquid paraffin 76.6%
  Measured saturated solubility: 3.85%
[2]; validation group 3: MCT 13.75%, isopropyl myristate 9.23%, light liquid paraffin 77.02%
  Measured saturated solubility: 3.52%
[2]; validation group 4: MCT 11.2%, isopropyl myristate 7.55%, light liquid paraffin 81.25%
  Measured saturated solubility: 2.56%
[2]; validation group 5: MCT 8.72%, isopropyl myristate 5.04%, light liquid paraffin 86.24%
  Measured saturated solubility: 1.58%
[2]; validation group 6: MCT 3%, isopropyl myristate 3%, light liquid paraffin 94%
  Measured saturated solubility: 0.401%
[2]; validation group 7: MCT 2%, isopropyl myristate 2%, light liquid paraffin 96%
  Measured saturated solubility: 0.203%
